What all share (format): physicochemical
Series [1] is described as follows: Heating of form A3 on oil bath up to 208° C., MS check. As to conditions: 200 mg heated gradually up to 208° C. at final 0.7 Pa for about 15 min. On the procedure:
Dasatinib (200 mg, form A3) was heated on oil bath gradually up to 208° C. at final 0.7 Pa for about 15 min.

The nature of series [2]: Blend with excipients pressed to a tablet, analyzed by PXRD. To be noted: 70 mg form A3 with lactose monohydrate, magnesium stearate, microcrystalline celulose, hydroxypropylmethyl celulose. On the procedure: (§1) XRD diffraction was performed on X-Ray powder diffractometer: Philips X'pert Pro powder diffractometer, CuKα radiation, λ=1.5418 Å. X'Celerator detector active length (2 theta)=2.122°, laboratory temperature 22-25° C. Zero background sample holders. Prior to analysis the samples were gently ground by means of mortar and pestle in order to obtain a fine powder. The ground sample was adjusted into a cavity of the sample holder and the surface of the sample was smoothed by means of a cover glass.

The nature of series [3]: Slurry of form N-6 in methanol: conversion to form B, solid phase analyzed by PXRD. To be noted: for content of form B in the recovered solid (PXRD): form N-6 75 mg slurried in 1 ml methanol, filtered, dried on air. The procedure: as §1
Dasatinib (form N-6, 75 mg) was put into vial and 1 ml of methanol was added. The slurry was then left at 0° C. for 2 days. The solid phase was filtered off and left to dry on air.
Dasatinib (form N-6, 75 mg) was put into vial and 1 ml of methanol was added. The slurry was then left at 20° C. for 2 days respectively. The solid phase was filtered off and left to dry on air.

For `Cc1nc(Nc2ncc(C(=O)Nc3c(C)cccc3Cl)s2)cc(N2CCN(CCO)CC2)n1` [form A3, dasatinib], in series [1], the “chemical change on heating (MS)” value is on record as “without any chemical change” and the sublimation on heating result is listed as “None sublimation was observed”. Moreover, the “crystalline form found in the pressed tablet (PXRD)” value in series [2] is on record as “belonging to form A3”.

With `Cc1nc(Nc2ncc(C(=O)Nc3c(C)cccc3Cl)s2)cc(N2CCN(CCO)CC2)n1` [form B, dasatinib], in series [3] (at a temperature of about 20° C. and below), the “stability of the crystalline form” value was “relatively stable”.

Regarding `Cc1nc(Nc2ncc(C(=O)Nc3c(C)cccc3Cl)s2)cc(N2CCN(CCO)CC2)n1` [form N-6, dasatinib], the “content of form B in the recovered solid (PXRD)” value is “about 10%” in series [3] (left at 0° C. for 2 days) and “about 1%” in series [3] (left at 20° C. for 2 days). For the same compound, the “polymorphic conversion on slurrying” value in series [3] (slurried at about 20° C. to about 0° C. for 2 days) is reported as “converted to form B”.

For the origin of these results see US8067423B2, “Polymorphs of dasatinib isopropyl alcohol and process for preparation thereof” (Teva Pharmaceutical Industries Ltd., priority 2007, dated 2011).
